Consider seven molecules from ChEMBL document CHEMBL1201862, “PubChem BioAssay data set” (2004).

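Results reflect a 48-hour exposure of cells in 96-well plates to compound at five concentrations. GI50 is the concentration that inhibits growth by half.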 Calls of active or inactive are those of the source. Rule as the data show it: active = GI50 up to about 1.1 µM and inactive = higher. Where only a bound is given, the exact number is not on record here.

Some test systems named below: SF-539; SN12C; MCF7; PC-3; Malme-3M; LOX IMVI; M14; HT-29; IGROV-1; UO-31; NCI-H23; MOLT-4; Hs-578T; HOP-62; ACHN; RXF 393; SW-620; CCRF-CEM; EKVX; SK-OV-3.
What all share (test): NCI anticancer screen, dose series, 48 h

In the case of `CSc1ncnc2c1ncn2CC(=O)C1CCC2C3CCC4=CC(=O)CCC4(C)C3CCC12C` (stereo not given), the GI50 with SF-539 was 8.41 µM (inactive); in the experiment with SN12C, 18.3 µM (inactive); in the experiment on MCF7, 3.08 µM (inactive); with PC-3, 2.57 µM (inactive); in the experiment with Malme-3M, 7.16 µM (inactive); in the experiment with LOX IMVI it was 4.38 µM (inactive). Further, the GI50 is 2.4 µM (inactive) in the experiment with M14; 3.76 µM (inactive) in the experiment with HT-29; 6.95 µM (inactive) with IGROV-1; 0.757 µM (active) with UO-31; 3.79 µM (inactive) in the experiment on NCI-H23; 1.69 µM (inactive) with MOLT-4. Also, the GI50 with Hs-578T was 19.1 µM (inactive); in the experiment with HOP-62, 2.42 µM (inactive); in the experiment with ACHN, 4.97 µM (inactive); in the experiment on RXF 393, 12 µM (inactive); in the experiment with SW-620 it was 9.16 µM (inactive); with CCRF-CEM, 0.729 µM (active). Also, the GI50 is 5.55 µM (inactive) with EKVX and 16.3 µM (inactive) in the experiment on SK-OV-3.

Regarding `O=C1CSC2=NCC3(NN12)c1ccccc1-c1ccccc13`, the GI50 in the experiment on SF-539, in the experiment with SN12C, in the experiment on MCF7, in the experiment with PC-3, with Malme-3M and in the experiment on LOX IMVI was > 10 µM (inactive) in each case. Besides, the GI50 with M14, in the experiment with HT-29, in the experiment with IGROV-1, in the experiment with UO-31, in the experiment on NCI-H23 and in the experiment on MOLT-4 was > 10 µM (inactive) throughout. Besides, the GI50 with Hs-578T, with HOP-62, with ACHN, in the experiment with RXF 393, with SW-620 and in the experiment on CCRF-CEM was > 10 µM (inactive) throughout. Besides, the GI50 with EKVX and in the experiment on SK-OV-3 was > 10 µM (inactive) each time.

`N#CC12CC=C(c3ccccc3)N=C1NC(c1ccccc1)=CC2` (stereo not given): the GI50 with SF-539 was > 100 µM (inactive); with SN12C it was > 100 µM (inactive); in the experiment with MCF7 it was 50 µM (inactive); with PC-3 it was 33.9 µM (inactive); in the experiment on Malme-3M it was > 100 µM (inactive); in the experiment with LOX IMVI it was 30.8 µM (inactive). Also, the GI50 in the experiment on M14 was 42.1 µM (inactive); in the experiment with HT-29 it was 57.3 µM (inactive); with IGROV-1, > 100 µM (inactive); in the experiment with UO-31 it was 40.3 µM (inactive); with NCI-H23, 84.9 µM (inactive); in the experiment with MOLT-4 it was 21.8 µM (inactive). Further, the GI50 with Hs-578T is > 100 µM (inactive); with HOP-62 it was > 100 µM (inactive); with ACHN, 57.4 µM (inactive); in the experiment on RXF 393, > 100 µM (inactive); in the experiment with SW-620, 98.9 µM (inactive); with CCRF-CEM, 32.2 µM (inactive). The GI50 was 52.2 µM (inactive) in the experiment on EKVX and > 100 µM (inactive) in the experiment on SK-OV-3.

Take `Cc1ccc2c(c1)C(=O)C(C1OC(=O)c3ccccc31)C2` (stereo not given): the GI50 in the experiment on SF-539 is 52 µM (inactive); with SN12C, 92.7 µM (inactive); in the experiment on MCF7, 36.1 µM (inactive); in the experiment on PC-3 it was 93.5 µM (inactive); with Malme-3M it was > 100 µM (inactive); in the experiment with LOX IMVI it was 39.9 µM (inactive). In addition, the GI50 was > 100 µM (inactive) in the experiment with M14; 29.2 µM (inactive) in the experiment on HT-29; > 100 µM (inactive) with IGROV-1; > 100 µM (inactive) in the experiment with UO-31; > 100 µM (inactive) with NCI-H23; 92.5 µM (inactive) in the experiment with MOLT-4. The GI50 in the experiment with Hs-578T is 69.5 µM (inactive); in the experiment with HOP-62, > 100 µM (inactive); with ACHN, 83.8 µM (inactive); in the experiment with RXF 393 it was 43.8 µM (inactive); in the experiment on SW-620 it was > 100 µM (inactive); in the experiment on CCRF-CEM it was 89.7 µM (inactive). In addition, the GI50 with EKVX and with SK-OV-3 was > 100 µM (inactive) throughout.

For the molecule `COc1cc(C(=O)NC(CCN)(c2ccccc2)c2ccccc2)cc(OC)c1OC`, the GI50 with SF-539 was > 65.2 µM (inactive); in the experiment with SN12C, 21.7 µM (inactive); with MCF7 it was > 31.6 µM (inactive); in the experiment on PC-3 it was > 100 µM (inactive); with Malme-3M it was 13.5 µM (inactive); in the experiment with LOX IMVI it was 16.7 µM (inactive). In addition, the GI50 in the experiment on M14 was 13.9 µM (inactive); in the experiment on HT-29 it was 16.8 µM (inactive); in the experiment with IGROV-1 it was 25.1 µM (inactive); in the experiment with UO-31, 20.9 µM (inactive); in the experiment with NCI-H23, 26.3 µM (inactive); in the experiment with MOLT-4, 10.8 µM (inactive). The GI50 is > 56.2 µM (inactive) with Hs-578T; > 31.6 µM (inactive) in the experiment on HOP-62; 24.8 µM (inactive) in the experiment on ACHN; 10.4 µM (inactive) with RXF 393; 29.6 µM (inactive) in the experiment on SW-620; > 10 µM (inactive) with CCRF-CEM. Also, the GI50 with EKVX and in the experiment on SK-OV-3 was > 31.6 µM (inactive) throughout.

On to `CCc1n[nH]c(=O)n1N1C(=O)C2CC=CCC2C1=O` (stereo not given), for which the GI50 in the experiment on SF-539, with SN12C, with MCF7, with PC-3, in the experiment on Malme-3M and in the experiment on LOX IMVI was > 100 µM (inactive) each time. For the same molecule, the GI50 with M14, in the experiment with HT-29, in the experiment on IGROV-1, in the experiment with UO-31, in the experiment with NCI-H23 and with MOLT-4 was > 100 µM (inactive) each time. Moreover, the GI50 in the experiment on Hs-578T, in the experiment with HOP-62, in the experiment on ACHN, with RXF 393, in the experiment with SW-620 and in the experiment on CCRF-CEM was > 100 µM (inactive) throughout. Moreover, the GI50 with EKVX and in the experiment with SK-OV-3 was > 100 µM (inactive) throughout.

As to `CN(C)/C=C/c1c2c(nc3ccccc13)C(=O)c1ccccc1C2=O`, the GI50 in the experiment on SF-539 is 1.92 µM (inactive); with SN12C it was 1.26 µM (inactive); in the experiment on MCF7, 0.7 µM (active); in the experiment with PC-3 it was 0.752 µM (active); in the experiment on Malme-3M, 0.71 µM (active); in the experiment with LOX IMVI it was 0.067 µM (active). In addition, the GI50 in the experiment on M14 was 0.586 µM (active); with HT-29, 1.54 µM (inactive); in the experiment with IGROV-1, 1.19 µM (inactive); in the experiment with UO-31 it was 1.82 µM (inactive); in the experiment with NCI-H23, 0.194 µM (active); in the experiment on MOLT-4, 1.03 µM (active). In addition, the GI50 in the experiment on Hs-578T is 1.04 µM (active); with HOP-62 it was 0.266 µM (active); with ACHN, 0.598 µM (active); with RXF 393, 3.2 µM (inactive); in the experiment with SW-620, 1.62 µM (inactive); with CCRF-CEM, 0.78 µM (active). Also, the GI50 in the experiment on EKVX was 1.89 µM (inactive); with SK-OV-3, 3.91 µM (inactive).
